Results: US20030215817A1, “Modulation of gene expression in formation of fatty atherosclerotic lesions” (priority 2003, published 2003)
Where a name gives a salt, the structure may show the parent alone.

Key:
[1] = system: REC1_3 (MspI ACGG 162) mRNA; test: quantified RT-PCR, Rec1_3; format: in vivo, rabbit; conditions: for Relative Abundance Rec1_3, 500 pg F: hypercholesterolemic plus lercanidipine racemate, eight weeks, H2 (normocholesterolemic)=1.0
Experimental: (§1) Nineteen of the isolated DST clones were further validated using RT-PCR analyses; the data are presented in FIGS. 6-24 and in Tables 5-23, below. For each DST examined, the optimal annealing temperature and reagent conditions were determined for the corresponding set of primers (see Table 25) based on results from a preliminary experiment. In eight separate reactions, each set of primers was assayed to find the optimal conditions by adjusting the following four parameters: primer concentration, dNTP concentration, MgCl2 concentration, and number of Taq polymerase units. Once optimal conditions were determined, each DST was run in duplicate multiple simultaneous reactions which usually included at least four dilutions of template (cDNA library), plus control reactions lacking template, and six sequential data points for numbers of cycles.
(§2) Reactions were performed using “Hot Start” PCR with the Clontech TaqStart antibody system (Cat. #5400-1). Each reaction contained 1 ml of the cDNA library dilution as template, determined amounts of AmpliTaq DNA polymerase (cat. #N808-0156), MgCl2, dNTPs (GibcoBRL cat. #10297-018), primer, and Clontech TaqStart Antibody in a 20 ml final reaction volume using 10×Taq buffer II (without MgCl2). Typically, a master mix containing all components except the template was prepared and aliquoted. Various templates were then added to these master mix samples and 20 ml volumes were subsequently dispensed into individual reaction tubes. At various times during the PCR run, tubes were removed sequentially on a predetermined schedule in order to quantitate expression of the target DST over a “window” of cycle times. After amplification, the samples were quantified via fluorimetry.
(§3) PCR was performed at annealing temperatures that were five degrees above the average melting temperature of each primer pair. For primers greater than 10 bases (in a 0.05M salt solution), melting temperature was calculated using the following formula: Tm=59.9+41[% GC]−[675/Primer Length], where %GC is the decimal value. Following determination of the average melting temperature of the primer pair, the annealing temperature was determined by adding five degrees to the average melting temperature. PCR was performed using the following program: 1) 95 degrees Celsius, 3 minutes; 2) 95 degrees Celsius, 30 seconds; 3) TM+5 degrees Celsius, 30 seconds; 4) 72 degrees Celsius, for a time dependent on target length at 16 bp/second; 5) repeat steps 2-4 33 more cycles; 6) 72 degrees Celsius, 3 minutes; 7) 14 degrees Celsius, forever.
(§4) Following temperature cycling, 2 ml of the PCR reaction was added to 140 ml of a 1:280 dilution of PicoGreen (Molecular Probes cat. #P-11495 (10×100 ml)) in TE pH 7.5 in a 96-well Costar UV microtiter plate (Fisher cat. #07-200623). The samples were mixed gently for 1.5 minutes and allowed to equilibrate at room temperature in the dark for 15 minutes. The concentration of the PCR products was quantified by fluorimetry using a PerSeptive Biosystems CytoFluor series 4000 multi-well plate reader.
(§5) Background fluorescence was determined by using duplicate control samples that were cycled with all reaction components except the template. The mean value from these duplicate background control samples was subtracted from the corresponding experimental values prior to analyzing results. The sensitivity of the PicoGreen dsDNA assay is reported to be 250 pg/ml (50 pg dsDNA in a […] assay volume) using a fluorescence microplate reader such as was used in these measurements. […]

[2] = in vivo studies (Soma 1998); cited from earlier work
REC1_16 (TCGG 195) mRNA = test: quantified RT-PCR, Rec1_16; format: in vivo, rabbit; conditions: for Relative Abundance Rec1_16, 20 pg F: hypercholesterolemic plus lercanidipine racemate, eight weeks, H2 (normocholesterolemic)=1.0
Experimental: as §1, §2, §3, §4
as §5, with “The mean value from these duplicate background control samples was subtracted from the corresponding experimental values prior to analyzing results.” left out

Rec1_12 (GCCC 232) mRNA = test: quantified RT-PCR, Rec1_12; format: in vivo, rabbit; conditions: for Relative Abundance Rec1_12, 20 pg F: hypercholesterolemic plus lercanidipine racemate, eight weeks, H2 (normocholesterolemic)=1.0
Experimental: as §1, §2, §3, §4, §5

[3] = system: Rec1_1 (MspI AAGC 288) mRNA; test: quantified RT-PCR, Rec1_1; format: in vivo, rabbit; conditions: for Relative Abundance Rec1_1, 20 pg F: hypercholesterolemic plus lercanidipine racemate, eight weeks, H2 (normocholesterolemic)=1.0
Experimental: as §1, §2, §3, §4
Background fluorescence was determined by using duplicate control samples that were cycled with all reaction components except the template. The mean value from these duplicate background control samples was subtracted from the corresponding experimental values prior to analyzing results. The sensitivity of the PicoGreen dsDNA assay is reported to be 250 pg/ml (50 pg dsDNA in a […] assay volume) using a fluorescence microplate reader such as was used in these measurements.
DST clone Rec1—1 was one of the clones further evaluated by RT-PCR. The TOGA analysis of clone Rec1—1, identified as MspI AAGC 288, is discussed above and illustrated in FIGS. 1 and 2. The results of the quantified RT-PCR for Rec1—1 are shown in FIG. 6 and in Table 5 (normalized to the normocholesterolemic control value (“H2”) at each time point). […]

REC1_19 (TGTT 393) mRNA = test: quantified RT-PCR, Rec1_19; format: in vivo, rabbit; conditions: for Relative Abundance Rec1_19, 100 pg F: hypercholesterolemic plus lercanidipine racemate, eight weeks, H2 (normocholesterolemic)=1.0
Experimental: as §1, §2, §3, §4, §5

[4] = system: REC1_13 (MspI GCCC 216) mRNA; test: quantified RT-PCR, Rec1_13; format: in vivo, rabbit; conditions: for Relative Abundance Rec1_13, 100 pg F: hypercholesterolemic plus lercanidipine racemate, eight weeks, H2 (normocholesterolemic)=1.0
Experimental: as §1, §2, §3, §4, §5

Rec1_36 (TTAG 155) mRNA = test: quantified RT-PCR, Rec1_36; format: in vivo, rabbit; conditions: hypercholesterolemic plus lercanidipine racemate, eight weeks, H2 (normocholesterolemic)=1.0
Experimental: as §1
Reactions were performed using “Hot Start” PCR with the Clontech TaqStart antibody system (Cat. #5400-1). Each reaction contained 1 ml of the cDNA library dilution as template, determined amounts of AmpliTaq DNA polymerase (cat. #N808-0156), MgCl2, dNTPs (GibcoBRL cat. #10297-018), primer, and Clontech TaqStart Antibody in a 20 ml final reaction volume using 10×Taq buffer II (without MgCl2). Typically, a master mix containing all components except the template was prepared and aliquoted. […] At various times during the PCR run, tubes were removed sequentially on a predetermined schedule in order to quantitate expression of the target DST over a “window” of cycle times. After amplification, the samples were quantified via fluorimetry.
PCR was performed at annealing temperatures that were five degrees above the average melting temperature of each primer pair. For primers greater than 10 bases (in a 0.05M salt solution), melting temperature was calculated using the following formula: Tm=59.9+41[% GC]−[675/Primer Length], where %GC is the decimal value. Following determination of the average melting temperature of the primer pair, the annealing temperature was determined by adding five degrees to the average melting temperature. […]

[5] = hypercholesterolemic animals receiving lercanidipine
[6] = hypercholesterolemic animals receiving lercanidipine racemate

SMILES: COC(=O)C1=C(C)NC(C)=C(C(=O)OC(C)(C)CN(C)CCC(c2ccccc2)c2ccccc2)C1c1cccc([N+](=O)[O-])c1 (racemic) [lercanidipine, lercanidipine hydrochloride]
- Relative Abundance Rec1_3, 500 pg F ([1]; cycle 26): 0.0
- Relative Abundance Rec1_3, 500 pg F ([1]; cycle 28): 0.0
- Relative Abundance Rec1_3, 500 pg F ([1]; cycle 30): 0.0
- Relative Abundance Rec1_3, 500 pg F ([1]; cycle 32): 0.1
- Relative Abundance Rec1_3, 500 pg F ([1]; cycle 34): 0.4
- expression of Rec1_3 at 8 weeks (RT-PCR study), in words ([1]; hypercholesterolemic animals receiving lercanidipine racemate, compared with hypercholesterolemic animals at 14 days): lower
- carotid intimal hyperplasia [2]: inhibit
- Relative Abundance Rec1_16, 20 pg F (REC1_16 (TCGG 195) mRNA; cycle 28): 0.0
- Relative Abundance Rec1_16, 20 pg F (REC1_16 (TCGG 195) mRNA; cycle 30): 0.2
- Relative Abundance Rec1_16, 20 pg F (REC1_16 (TCGG 195) mRNA; cycle 32): 0.6
- Relative Abundance Rec1_16, 20 pg F (REC1_16 (TCGG 195) mRNA; cycle 34): 0.3
- expression of Rec1_16 at 8 weeks (RT-PCR study), in words (REC1_16 (TCGG 195) mRNA; [5]): decreased
- Relative Abundance Rec1_12, 20 pg F (Rec1_12 (GCCC 232) mRNA; cycle 26): 0.1
- Relative Abundance Rec1_12, 20 pg F (Rec1_12 (GCCC 232) mRNA; cycle 28): 0.0
- Relative Abundance Rec1_12, 20 pg F (Rec1_12 (GCCC 232) mRNA; cycle 30): 0.4
- Relative Abundance Rec1_12, 20 pg F (Rec1_12 (GCCC 232) mRNA; cycle 32): 0.6
- Relative Abundance Rec1_12, 20 pg F (Rec1_12 (GCCC 232) mRNA; cycle 34): 0.6
- Relative Abundance Rec1_12, 20 pg F (Rec1_12 (GCCC 232) mRNA; cycle 36): 0.6
- expression of Rec1_12 at 8 weeks (RT-PCR study), in words (Rec1_12 (GCCC 232) mRNA; [5]): decreased
- Relative Abundance Rec1_1, 20 pg F ([3]; cycle 26): 7.7
- Relative Abundance Rec1_1, 20 pg F ([3]; cycle 28): 4.9
- Relative Abundance Rec1_1, 20 pg F ([3]; cycle 30): 3.2
- Relative Abundance Rec1_1, 20 pg F ([3]; cycle 32): 2.1
- Relative Abundance Rec1_1, 20 pg F ([3]; cycle 34): 1.5
- expression of Rec1_1 at 8 weeks (RT-PCR study), in words [3, 6]: elevated
- Relative Abundance Rec1_19, 100 pg F (REC1_19 (TGTT 393) mRNA; cycle 24): 0.0
- Relative Abundance Rec1_19, 100 pg F (REC1_19 (TGTT 393) mRNA; cycle 26): 0.0
- Relative Abundance Rec1_19, 100 pg F (REC1_19 (TGTT 393) mRNA; cycle 28): 0.0
- Relative Abundance Rec1_19, 100 pg F (REC1_19 (TGTT 393) mRNA; cycle 30): 0.1
- Relative Abundance Rec1_19, 100 pg F (REC1_19 (TGTT 393) mRNA; cycle 32): 0.3
- Relative Abundance Rec1_19, 100 pg F (REC1_19 (TGTT 393) mRNA; cycle 34): 0.5
- expression of Rec1_19 at 8 weeks (RT-PCR study), in words (REC1_19 (TGTT 393) mRNA; [5]): decreased
- Relative Abundance Rec1_13, 100 pg F ([4]; cycle 20): 1.4
- Relative Abundance Rec1_13, 100 pg F ([4]; cycle 22): 33.7
- Relative Abundance Rec1_13, 100 pg F ([4]; cycle 24): 3.0
- Relative Abundance Rec1_13, 100 pg F ([4]; cycle 26): 1.9
- Relative Abundance Rec1_13, 100 pg F ([4]; cycle 28): 1.2
- Relative Abundance Rec1_13, 100 pg F ([4]; cycle 30): 1.3
- expression of Rec1_13 at 8 weeks (RT-PCR study), in words [4, 6]: elevated
- Relative Abundance Rec1_36, 100 pg F (Rec1_36 (TTAG 155) mRNA; cycle 30): 0.2
- Relative Abundance Rec1_36, 100 pg F (Rec1_36 (TTAG 155) mRNA; cycle 32): 0.5
- Relative Abundance Rec1_36, 100 pg F (Rec1_36 (TTAG 155) mRNA; cycle 34): 0.4
